Test results reported in patent US9670139B2, “Telomerase activating compounds and methods of use thereof” (BEN-GURION UNIVERSITY OF THE NEGEV RESEARCH AND DEVELOPMENT …, priority 2007, dated 2017).

Columns and labels:
[1] = test system: murine B-cell leukemia lymphoma (BCL1) cells; experiment: BCL1 tumorigenicity in (BALB/c×C57BL/6)F1 mice; type: in vivo, mouse; conditions: mice inoculated with 10^5 BCL1 cells; Compound 77 10 mM
Experimental: (BALB/c×C57BL/6)F1 mice were inoculated with 10^5 murine B-cell leukemia lymphoma (BCL1) cells. Splenomegaly and lymphocytosis (leukemia) developed in all controls and in mice treated with telomerase-activating compounds (40 or 80 mg/kg).

C. elegans = experiment: Lifespan extension of nematodes (C. elegans); type: in vivo; conditions: 50 micromolar; for Lifespan extension (%): Table 2, versus untreated controls; for Lifespan %: table of scaffold drawing 36, mean lifespan versus control
Experimental: Nematodes (C. elegans) were administered tri-phenyl telomerase-activating compounds presented in the following tables, and telomerase activity and/or expression was measured in terms of nematode lifespan extension. Nematodes were grown with the activators at 50 micromolar concentration, and the mean, maximum and half-life for Compound 68 and Compound 77, two representative molecules, was measured versus that of the control (FIG. 8). Values represent mean lifespan.
Survival of the C. elegans, a nematode that normally survives for 12-14 days, represents an acceptable model for studying life extension. Nematodes were administered tri-phenyl telomerase-activating compounds and their effect on the nematode lifespan extension was determined. Nematodes were grown with the activators at a concentration of 50 micromolar, and mean, maximum and half-life were measured in comparison with untreated controls. Lifespan increased by 13-43% (Table 2), and the median lifespan increased approximately 2-fold (from 12 days to 22 days, as shown in FIG. 8).

telomerase [2] = experiment: Telomerase expression in rat brain cortex after subcutaneous injection (immunofluorescence); type: in vivo
Text: The effect of compounds of the present invention injected subcutaneously into female rats and adult male mice on telomerase expression in various regions of the brain was examined.

[3] = Graft-versus-host disease (GVHD) induced by C57BL/6 spleen cells; type: in vivo, mouse; conditions: F1 mice inoculated with 30×10^6 C57BL/6 spleen cells
Text: (BALB/c×C57BL/6)F1 mice were inoculated with 30×10^6C57BL/6 spleen cells for induction of GVHD.

telomerase [4] = experiment: Telomerase expression in mouse heart protein extracts; type: in vivo; conditions: after injection, one mouse
Experimental: The activation of telomerase by compounds of the present invention in heart protein extracts derived from one mouse was measured (FIG. 14). […] This supports a role for compounds of the present invention in treating infarct, ischemia, myocarditis, etc.

mouse cerebellum = experiment: Prevention of glutamate-induced apoptosis in mouse cerebellum slices; type: in vivo; conditions: 6 mg/kg, 24 h; slices treated with glutamate 30 min
Experimental: The ability of compounds of the present invention to prevent glutamate-induced apoptosis in mouse cerebellum was examined. Mice were injected with 6 mg/kg of Compound 79 or with vehicle only. Mice were sacrificed 24 h after treatment and their brains were removed. Cerebellum slices were prepared and subjected to glutamate treatment at various concentrations for 30 min. Sections were stained with propidium iodide and the number of apoptotic cells was counted and calculated using specific software (Jimage). Prevention of apoptosis in mice treated with compounds of the present invention was calculated as a percentage relative to control mice (FIG. 13). This supports a role for compounds of the present invention in treating seizures, stroke, Alzheimer's disease, epilepsy, schizophrenia, and alcohol and opiate addition.

Human keratinocytes = experiment: Proliferation and survival of senescent human keratinocytes; type: cell-based; conditions: fifth passage keratinocytes
Experimental: Human keratinocytes which had lost their ability to proliferate (in their fifth passage) were obtained from a local skin bank and treated with Compound 68 for 24 h. Cell viability, cell number and morphology was examined.

telomerase [5] = target: T1, telomerase (Homo sapiens, UniProt O14746); experiment: Real time PCR quantification of telomerase activity in hMSC nuclear extracts; type: cell-based; design: endogenous in cells; conditions: 250 nM
Experimental: FIG. 5: Activation of telomerase expression in hMSC by compounds of the present invention. A.—hMSC were treated with 250 nM of Compounds 79, 77 and 68 for 6 hours. Immunofluorescence was performed with anti-hTERT antibody (red) and the nucleus was stained with DAPI (blue). B. hMSC treated with compound 79 for 6 and 24 h. Telomerase activity was measured by real time PCR using a quantitative telomerase detection kit (Allied Biotech Inc., USA).
The possibility that compounds of the present invention enhance hMSC survival and proliferation by activation of TERT was examined by culturing hMSC (p 3) in a tissue culture chamber slide at 17×10^3 cells/well for 60 h. Compounds of the present invention were added for 6 h with fresh medium. Immunofluorescence with anti-hTERT antibody (first antibody) and cy3 fluorescent secondary antibody was carried out. The nucleus was stained with DAPI. Compounds of the present invention activated telomerase expression in hMSC (FIG. 5). […] Degree of activation of telomerase expression was Compound 68>79>77. Quantification of telomerase activity in hMSC was performed by Real time PCR (Quantification telomerase detection kit) in nuclear extracts derived from hMSC treated with compound 79 (250 nM) for 6 or 24 h. Compound 79 enhanced telomerase activity in hMSC by 12- or 6-fold in a time-dependent manner (FIG. 5B).

telomerase [6] = experiment: Telomerase expression in mouse brain regions after subcutaneous injection (immunofluorescence); type: in vivo; conditions: three-month-old male mice, 24 h
Experimental: Compound 79 was injected subcutaneously into three-month-old male mice. The mice were sacrificed 24 h later and the cortex, cerebellum, hippocampus, hypothalamus, brain stem and olfactory bulb isolated and subjected to immunofluorescence. […] This activation appeared to be specific for certain neuronal cells.

telomerase [7] = target: T1, telomerase; experiment: Telomerase activity in RPE cells (quantitative telomerase detection kit, real time PCR); type: cell-based; design: endogenous in cells; host or cells: human retinal pigmented epithelial (RPE) cells; conditions: FIG. 7B
Text: FIG. 7: A. The effect of compounds of the present invention on human retinal pigmented epithelial cells under oxidative stress. B. The effect of compounds on telomerase activity in RPE cells (measured by a quantitative telomerase detection kit-real time PCR).
Chronic exposure of human retinal pigmented epithelial (RPE) cells to oxidative stress predisposes them to the development of age-related macular degeneration (AMD). Human RPE cells were exposed to oxidative stress by treatment with H2O2 (1 mM) for 24 hours, and H2O2 (0.5 mM) for another 24 hours. The cells were then treated daily for two days with the indicated compounds in the absence of H2O2. Increased cell growth was observed as a consequence of treatment with the compounds (FIG. 7A). Telomerase activity was enhanced in RPE cells treated with compounds 68 and 79 by 30- and 50-fold, respectively (FIG. 7B).

T1 sequence (O14746 whole entry): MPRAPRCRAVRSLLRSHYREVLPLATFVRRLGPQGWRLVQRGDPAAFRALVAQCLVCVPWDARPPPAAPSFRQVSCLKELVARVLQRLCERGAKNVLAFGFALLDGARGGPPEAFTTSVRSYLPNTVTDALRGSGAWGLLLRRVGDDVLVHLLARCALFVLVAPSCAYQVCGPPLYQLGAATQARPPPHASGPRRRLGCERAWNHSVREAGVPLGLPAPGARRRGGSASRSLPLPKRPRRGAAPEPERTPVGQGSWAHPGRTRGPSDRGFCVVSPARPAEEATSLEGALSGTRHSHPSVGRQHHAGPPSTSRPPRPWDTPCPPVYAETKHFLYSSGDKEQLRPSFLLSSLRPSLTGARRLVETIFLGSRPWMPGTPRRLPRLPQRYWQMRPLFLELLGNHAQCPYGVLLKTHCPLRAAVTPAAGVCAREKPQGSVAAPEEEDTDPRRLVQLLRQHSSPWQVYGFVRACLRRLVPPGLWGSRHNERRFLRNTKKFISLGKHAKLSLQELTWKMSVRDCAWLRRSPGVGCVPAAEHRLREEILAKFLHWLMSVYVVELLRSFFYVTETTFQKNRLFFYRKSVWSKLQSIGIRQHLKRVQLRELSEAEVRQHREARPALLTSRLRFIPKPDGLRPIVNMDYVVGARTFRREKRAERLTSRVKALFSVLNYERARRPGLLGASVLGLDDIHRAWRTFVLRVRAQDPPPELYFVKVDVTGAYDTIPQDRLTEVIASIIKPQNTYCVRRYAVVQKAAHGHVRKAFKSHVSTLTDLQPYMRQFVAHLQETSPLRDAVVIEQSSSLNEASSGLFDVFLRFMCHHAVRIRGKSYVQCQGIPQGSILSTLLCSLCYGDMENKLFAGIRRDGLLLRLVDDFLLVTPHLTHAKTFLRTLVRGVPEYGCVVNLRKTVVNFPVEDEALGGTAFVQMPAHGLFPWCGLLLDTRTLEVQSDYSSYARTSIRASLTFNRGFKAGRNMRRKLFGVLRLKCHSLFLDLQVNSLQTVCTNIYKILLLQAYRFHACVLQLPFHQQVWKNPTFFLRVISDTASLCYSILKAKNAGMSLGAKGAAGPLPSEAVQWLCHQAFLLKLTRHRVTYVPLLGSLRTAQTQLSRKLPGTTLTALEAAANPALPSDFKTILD

Question: What does the source list for `CN(C)Cc1cc(C(C)(c2cc(CN(C)C)c(O)c(CN(C)C)c2)c2cc(CN(C)C)c(O)c(CN(C)C)c2)cc(CN(C)C)c1O` [Compound 77]?
Answer: Survival Median (range) [1]: 26 (22-41); Lifespan extension (%) (C. elegans): 43%; Lifespan % (C. elegans): 43%; expression of telomerase in the brain cortex (telomerase [2]): significantly activated; signs of acute GVHD (weight loss) versus untreated controls [3]: more severe signs of acute GVHD

Question: For `CCOCc1cc(C(C)(c2cc(COCC)c(O)c(COCC)c2)c2cc(COCC)c(O)c(COCC)c2)cc(COCC)c1O` [Compound 79], which “Lifespan extension (%)” value (C. elegans) is on record?
Answer: 16%

Question: What about the Lifespan % (C. elegans) of the same compound?
Answer: 16%

Question: What about the heart telomerase expression (telomerase [4]) of the same compound?
Answer: significant increase

Question: What about the “glutamate-induced apoptosis in mouse cerebellum” value (mouse cerebellum) of the same compound?
Answer: Prevention of glutamate-induced apoptosis

Question: And the “cell survival effect on keratinocytes (comparison)” value (Human keratinocytes)?
Answer: better cell survival effect than Compound 68

Question: What about the “expression of telomerase in the brain cortex” value (telomerase [2]) of the same compound?
Answer: significantly activated

Question: What about the “enhancement of telomerase activity in hMSC” value (telomerase [5]; 6 h) of the same compound?
Answer: 12 fold

Question: What about the “enhancement of telomerase activity in hMSC” value (telomerase [5]; 24 h) of the same compound?
Answer: 6 fold

Question: What about the “telomerase expression in motor-neuronal cells of the brain stem” value (telomerase [6]) of the same compound?
Answer: increased telomerase expression

Question: What about the “telomerase expression in the various brain regions” value (telomerase [6]) of the same compound?
Answer: significantly and dramatically increased

Question: What about the “enhancement of telomerase activity in RPE cells” value (telomerase [7]) of the same compound?
Answer: 50 fold
